Test results: article PMC6837341, “Evolutionarily conserved susceptibility of the mitochondrial respiratory chain to SDHI pesticides and its consequence on the impact of SDHIs on human cultured cells” (PLoS ONE, 2019)
Read-outs that look alike come from different tables or passages of the source.

Key:
Assay type in all cases: biochemical
[1] = target: T1, succinate cytochrome c reductase (SDH+CIII) (Botrytis cinerea, UniProt A0A384J5E4+D2IH01+D2IH03); assay: SCCR activity, Botrytis cinerea mitochondria
T1 sequence (A0A384J5E4 30-300): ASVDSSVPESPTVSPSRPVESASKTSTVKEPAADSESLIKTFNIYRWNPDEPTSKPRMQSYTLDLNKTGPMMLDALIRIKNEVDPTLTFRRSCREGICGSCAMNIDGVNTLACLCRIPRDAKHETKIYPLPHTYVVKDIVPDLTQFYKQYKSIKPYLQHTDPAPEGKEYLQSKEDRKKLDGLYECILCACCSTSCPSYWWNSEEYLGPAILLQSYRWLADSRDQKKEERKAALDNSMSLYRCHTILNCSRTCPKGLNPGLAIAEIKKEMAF
T1 sequence (D2IH03 46-189): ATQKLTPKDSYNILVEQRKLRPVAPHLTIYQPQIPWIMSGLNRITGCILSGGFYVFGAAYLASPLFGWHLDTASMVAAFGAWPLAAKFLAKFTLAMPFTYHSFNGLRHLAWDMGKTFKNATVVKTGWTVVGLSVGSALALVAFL
T1 sequence (D2IH01 64-192): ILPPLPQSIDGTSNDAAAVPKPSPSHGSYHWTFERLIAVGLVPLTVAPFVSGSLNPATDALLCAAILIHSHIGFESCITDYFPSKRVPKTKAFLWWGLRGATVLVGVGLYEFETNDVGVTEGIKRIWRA
Protocol: The mixed population of B. cinerea fungi used in this study was kindly provided by Dr. Joelle Dupont (Museum National d’Histoire Naturelle, Paris, France). Conidia from Botrytis cinerea were obtained from 15–30 d cultures grown on malt medium agar plates. Mycelial colonies were prepared by seeding conidia from 10 colonies in liquid medium (10 g of glucose, 2 g of KH2PO4, 0.5 g of MgSO47H2O, 1 g of (NH4)2SO4, 2 g of yeast extract and deionized water up to 1 l, pH 6.2). Incubation was performed at 23°C until hyphae totally covered the surface of the bottle. The hyphae (9-cm-diameter disks) were harvested, washed twice with refrigerated distilled water and finally with mitochondria extraction medium containing 20 mM Tris (pH 7.2), 0.25 M sucrose, 40 mM KCl, 2 mM EGTA, 1 mg/ml BSA, and no cysteine. The hyphae were suspended in 150 ml of extraction medium, cut in small pieces (1 cm^2) and then disrupted at high speed for 1×2 sec and at low speed for 2×3 sec using a MultiMoulinex mixer (Moulinex, France). The suspension of disrupted hyphae was then filtered through two layers of nylon cloth (clearance 150 μm). The cloth was washed with 50 ml of extraction medium. After low-speed centrifugation (700 g for 15 min), the mitochondria were collected at 10,000 g for 20 min. The pellet was suspended in 250 μl of extraction medium, aliquoted (± 30 μl) and kept frozen at -80°C.
RC enzyme activities were spectrophotometrically measured using a pseudo-double-wavelength spectrophotometer (Cary 60, Agilent). Malonate-sensitive succinate quinone dichlorophenolindophenol (DCPIP) reductase (SQDR), as an indicator of the activity of the isolated SDH enzyme (isolated CII), and glycerol-3-phosphate quinone DCPIP reductase (GQDR), as a measure of the activity of the isolated glycerol-3-phosphate dehydrogenase (G3PDH), were assayed as previously described. […] With this aim, we measured the malonate-sensitive succinate cytochrome c reductase (SDH+CIII), glycerol-3-phosphate cytochrome c reductase (G3PDH+CIII) and antimycin-sensitive quinol cytochrome c reductase (CIII) as previously described.
(§1) The effects of eight different SDHIs (up to 500 μM; S2 Fig) were determined on four different biological materials. Because IC50 are known to be affected by the actual absolute activity of the tested enzyme, these IC50 were quantified using similar levels of SDH enzyme activity during the assay. IC50 values were determined using the AAT Bioquest IC50 calculator tool (https://www.aatbio.com/tools/ic50-calculator).

[2] = target: succinate cytochrome c reductase (SDH+CIII) (Homo sapiens, UniProt O14521+P21912+Q99643); assay: Malonate-sensitive succinate cytochrome c reductase (SCCR) activity, freeze-thawed HEK cells; set-up: the pellets were permeabilized by two freeze-thaw cycles before enzyme assays; endogenous in cells; host or cells: HEK293, freeze-thawed cell pellets; conditions: no exogenous quinone
Protocol: (§2) The cells were grown in T75 flasks using 10 ml Dulbecco’s modified Eagle's minimal essential medium (DMEM) either containing 1 or 4.5 g/l glucose, 4 mM glutamine (glutamax; Gibco Thermo Fisher Scientific, MA), 2 mM pyruvate and 200 μM uridine (permissive medium, thereafter referred as GlucoMax) or lacking glucose, pyruvate and uridine but containing 4 mM glutamine (nonpermissive medium, thereafter referred as MitoMax; S1 Table). All media were supplemented with 10% fetal calf serum and 100 U/mL each penicillin and streptomycin. HEK293 human embryonic kidney cells were cultured in DMEM containing 4.5 g/L glucose, 4 mM glutamine, 10% fetal calf serum, 200 μM uridine, 2 mM pyruvate, and 100 U/mL each penicillin and streptomycin [9]. Cell pellets (1,500 g for 5 min) were kept frozen (-80°C), and for biochemical studies, the pellets were permeabilized by two freeze-thaw cycles before enzyme assays.
(§3) RC enzyme activities were spectrophotometrically measured using a pseudo-double-wavelength spectrophotometer (Cary 60, Agilent). Malonate-sensitive succinate quinone dichlorophenolindophenol (DCPIP) reductase (SQDR), as an indicator of the activity of the isolated SDH enzyme (isolated CII), and glycerol-3-phosphate quinone DCPIP reductase (GQDR), as a measure of the activity of the isolated glycerol-3-phosphate dehydrogenase (G3PDH), were assayed as previously described. To study the effect of SDHIs on the RC, we had to take into consideration the fact that these inhibitors act through binding to quinone-binding sites in the RC. Accordingly, we observed that the extent of the inhibitory effects of these substances varies with the addition of exogenous quinones (Fig 1). […] With this aim, we measured the malonate-sensitive succinate cytochrome c reductase (SDH+CIII), glycerol-3-phosphate cytochrome c reductase (G3PDH+CIII) and antimycin-sensitive quinol cytochrome c reductase (CIII) as previously described.
as §1

[3] = target: T2, quinol cytochrome c reductase (CIII) (Homo sapiens, UniProt P00156); assay: Antimycin-sensitive quinol cytochrome c reductase (QCCR) activity, freeze-thawed HEK cells
T2 construct: the pellets were permeabilized by two freeze-thaw cycles before enzyme assays; endogenous in cells; host or cells: HEK293, freeze-thawed cell pellets
Protocol: as §2, §3, §1

[4] = Homo sapiens, freeze-thawed HEK cells, CIII values only indicative (reduced quinone added), read-out: IC50 QCCR
[5] = Botrytis cinerea mitochondria, read-out: IC50 SCCR

Sequence of succinate cytochrome c reductase (SDH+CIII) (Homo sapiens, UniProt O14521+P21912+Q99643) (P21912 29-280): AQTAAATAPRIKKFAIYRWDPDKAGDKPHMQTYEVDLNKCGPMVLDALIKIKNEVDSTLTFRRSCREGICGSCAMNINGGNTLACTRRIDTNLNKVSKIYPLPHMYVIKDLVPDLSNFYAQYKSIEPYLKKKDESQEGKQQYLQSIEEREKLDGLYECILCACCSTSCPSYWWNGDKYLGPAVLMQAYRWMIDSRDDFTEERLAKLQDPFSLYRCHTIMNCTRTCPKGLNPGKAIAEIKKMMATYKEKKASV
Sequence of succinate cytochrome c reductase (SDH+CIII) (Homo sapiens, UniProt O14521+P21912+Q99643) (Q99643 30-169): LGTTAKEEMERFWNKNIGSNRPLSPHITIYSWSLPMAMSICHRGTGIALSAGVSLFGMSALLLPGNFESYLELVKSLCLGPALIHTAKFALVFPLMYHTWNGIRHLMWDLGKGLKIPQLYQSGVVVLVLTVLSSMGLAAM
Sequence of succinate cytochrome c reductase (SDH+CIII) (Homo sapiens, UniProt O14521+P21912+Q99643) (O14521 57-159): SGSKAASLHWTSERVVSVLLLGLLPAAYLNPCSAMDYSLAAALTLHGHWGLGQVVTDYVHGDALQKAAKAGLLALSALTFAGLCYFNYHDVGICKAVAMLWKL
Sequence of succinate cytochrome c reductase (SDH+CIII) (Homo sapiens, UniProt O14521+P21912+Q99643) (P31040 43-664 partner): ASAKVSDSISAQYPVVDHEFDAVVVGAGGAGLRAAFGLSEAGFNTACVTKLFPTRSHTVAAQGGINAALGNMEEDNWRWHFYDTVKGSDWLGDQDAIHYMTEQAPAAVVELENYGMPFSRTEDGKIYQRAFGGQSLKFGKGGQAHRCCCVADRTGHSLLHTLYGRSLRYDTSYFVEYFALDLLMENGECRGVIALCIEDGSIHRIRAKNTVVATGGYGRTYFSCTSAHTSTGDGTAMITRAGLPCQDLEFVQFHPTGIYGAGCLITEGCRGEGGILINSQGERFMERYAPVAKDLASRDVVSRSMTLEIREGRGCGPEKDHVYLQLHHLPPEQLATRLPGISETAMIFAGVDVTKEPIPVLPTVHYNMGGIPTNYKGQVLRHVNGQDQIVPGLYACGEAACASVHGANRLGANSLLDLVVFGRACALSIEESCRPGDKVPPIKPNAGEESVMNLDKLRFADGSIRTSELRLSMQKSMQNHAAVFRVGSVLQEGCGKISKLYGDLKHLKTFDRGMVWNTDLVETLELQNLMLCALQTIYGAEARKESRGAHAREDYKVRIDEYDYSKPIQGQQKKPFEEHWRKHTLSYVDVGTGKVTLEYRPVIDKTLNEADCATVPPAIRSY

Structure (SMILES)	IC50 [1] [nM]	IC50 ([2]; IC50 SCCR, n ≥ 3) [nM]	IC50 [3] [nM]	IC50 ([2]; n ≥ 3, read-out: IC50 SCCR) [nM]	IC50 [3, 4] [nM]	IC50 [1, 5] [nM]	IC50 ([2]; n ≥ 3, listed as bixafen, read-out: IC50 SCCR) [nM]	IC50 ([2]; n ≥ 3, listed as isopyrazam, read-out: IC50 SCCR) [nM]	IC50 ([2]; n ≥ 3, listed as penflufen, read-out: IC50 SCCR) [nM]
CC(C)CC(C)c1sccc1NC(=O)c1cn(C)nc1C(F)(F)F (stereo not drawn) [Penthiopyrad, penthiopyrad]	45	3700	349000						
CC(C)Oc1cccc(NC(=O)c2ccccc2C(F)(F)F)c1 [Flutolanil, flutolanil]	8600			18700	> 500000				
Cn1cc(C(=O)Nc2ccc(F)cc2-c2ccc(Cl)c(Cl)c2)c(C(F)F)n1 [Bixafen, bixafen]				340	15500	70	≤ 1000		
O=C(Nc1ccccc1-c1ccc(Cl)cc1)c1cccnc1Cl [Boscalid, boscalid]	800	4800	> 500000						
CC(C)C1C2CCC1c1c(NC(=O)c3cn(C)nc3C(F)F)cccc12 (stereo not drawn) [Isopyrazam, isopyrazam]				630	125000	23		≤ 1000	
Cn1cc(C(=O)Nc2ccccc2-c2cc(F)c(F)c(F)c2)c(C(F)F)n1 [Fluxapyroxad, fluxapyroxad]				2100	> 500000	95			
Cc1nn(C)c(F)c1C(=O)Nc1ccccc1C(C)CC(C)C (stereo not drawn) [Penflufen, penflufen]				1300	> 500000	130			≤ 1000
